From patent publication US12544372B2, “Methods of treating rheumatoid arthritis, chronic spontaneous urticaria, and systemic lupus erythematosis using an inhibitor of Bruton's tyrosine kinase” (Genentech, Inc., priority 2019, dated 2026) come the findings set out here.

For the test, the system named is patients with moderate to severe active rheumatoid arthritis. Briefly: Phase II RA study, Cohort 1 (inadequate response to MTX): clinical efficacy (ACR50, DAS28-3-CRP). Format: in vivo, human. The settings on record: for DAS 28-3 (CRP) Adjusted Mean / DAS 28-3 (CRP) Difference (d): Week 12; for ACR50 Responders / ACR50 Weighted Difference vs Placebo: Week 12 Day 84; for DAS 28-3 (CRP) Difference (d): versus placebo. An excerpt: A Two-Cohort Randomized Phase II, Double-Blind, Parallel Group Study in Patients with Active Rheumatoid Arthritis Evaluating the Efficacy and Safety of Fenebrutinib Compared with Placebo and Adalimumab in Patients with an Inadequate Response to Previous Methotrexate Therapy (Cohort 1) and Compared with Placebo in Patients with an Inadequate Response or Intolerance to Previous TNF Therapy (Cohort 2)
This study was designed to evaluate the efficacy and safety of fenebrutinib compared with placebo (Cohorts 1 and 2) and compared with adalimumab (ADA) (Cohort 1), each in combination with methotrexate (MTX), in patients with moderate to severe active rheumatoid arthritis (RA). Specific objectives and corresponding endpoints for the study are outlined below.
The study was a multicenter, Phase II, randomized, double-blind, placebo-controlled, active comparator (Cohort 1 only), parallel-group, dose-ranging study to evaluate the efficacy and safety of fenebrutinib in patients with moderate to severe active RA and an inadequate response to previous MTX therapy (Cohort 1) or MTX and TNF therapy who may have also had exposure to no more than one non-TNF inhibitor biologic (Cohort 2). Moderate to severe active RA was defined by ≥6 tender/painful joints on motion (68 joint count) and ≥6 swollen joints (66 joint count) at both screening and Day 1 (randomization), as well as a high sensitivity C-reactive protein (hsCRP)≥0. 400 mg/dL for Cohort 1 a hsCRP≥0.650 mg/dL for Cohort 2 at screening.
The study enrolled 578 patients. […] After a screening period of up to 28 days, patients in both cohorts received blinded study drug (oral fenebrutinib or matching placebo) for 12 weeks, after which they had the option to enter an 8 week follow-up period or enroll into an open-label extension (OLE) study. In addition to study drug, patients in Cohort 1 were also treated with subcutaneous (SC) comparatory drug (ADA or placebo).
Cohort 1 treatment regimens. […]
Disease Activity Score 28. The DAS 28-4 (CRP) and the DAS 28-4 (ESR) are calculated as follows. Assessments: (i) Tender joint count of 28 joints (TJC28), square-root transformed; (ii) Swollen joint count of 28 joints (SJC28), square-root transformed; (iii) Acute-phase reactant (erythrocyte sedimentation rate [ESR mm/hr] or high sensitivity C-reactive protein [hsCRP mg/L]), log transformed; (iv) Patient's global assessment of disease activity on visual analog scale (0-100 mm).
The DAS 28 is calculated according to the following formulas: DAS 28(4)−ESR=0.56×SQRT(TJC28)+0.28SQRT(SJC28)+0.70×ln(ESR)+0.014×PtGA DAS 28(4)−CRP=0.56×SQRT(TJC28)+0.28SQRT(SJC28)+0.36×ln(CRP+1)+0.014×PtGA+0.96 • Total score: Range, 0.49-9.07 • Disease remission≤2.6 • Disease activity: Low≤3.2; Moderate d>3.2 and ≤5.1; High>5.1 (PtGA=patient's global assessment of disease activity; ln=natural logarithm; SQRT=square root)
ACR Assessments. The ACR's definition for calculating improvement in RA (ACR20) is calculated as a 20% improvement in tender and swollen joint counts and a 20% improvement in 3 of the 5 remaining ACR-core set measures: patient and physician global assessments, pain, disability, and an acute-phase reactant. Similarly, ACR50 and ACR70 are calculated with the respective percent improvements. The Sponsor, on the basis of the component parts, will calculate the ACR score.
The specific components of the ACR Assessments used in this study are as follows: Tender/Painful Joint Count (68), Swollen Joint Count (66), Patient's Assessment of Arthritis Pain, Patient's Global Assessment of Arthritis, Physician's Global Assessment of Arthritis, CRP and HAQ-DI.

As to `C[C@H]1CN(C2COC2)CCN1c1ccc(Nc2cc(-c3ccnc(N4CCn5c(cc6c5CC(C)(C)C6)C4=O)c3CO)cn(C)c2=O)nc1` [fenebrutinib, (S)-2-(3′-(hydroxymethyl)-1-methyl-5-((5-(2-methyl-4-(oxetan-3-yl)piperazin-1-yl)pyridin-2-yl)amino)-6-oxo-1,6-dihydro-[3,4′-bipyridin]-2′-yl)-7,7-dimethyl-2,3,4,6,7,8-hexahydro-1H-cyclopenta[4,5]pyrrolo[1,2-a]pyrazin-1-one], where the note is “Cohort 1, 50 mg QD”, the “DAS 28-3 (CRP) Adjusted Mean” value was −1.54, the “ACR50 Responders” value is 7 (17.5%), the “ACR50 Weighted Difference vs Placebo” value came to 8.00 and the “DAS 28-3 (CRP) Difference (d)” value is −0.36. Where the note is “Cohort 1, 150 mg QD”, the “DAS 28-3 (CRP) Adjusted Mean” value was −1.74, the “ACR50 Responders” value was 30 (27.5%), the “ACR50 Weighted Difference vs Placebo” value worked out at 12.93 and the “DAS 28-3 (CRP) Difference (d)” value was −0.57.
